Measurements published in ChEMBL document CHEMBL1201861, “Genomics of Drug Sensitity in Cancer screening data, Wellcome Trust Sanger Institute”.

Legend:
[1] = system: DG-75; experiment: cells; type: functional, cell-based; details: Homo sapiens;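 further: growth inhibition of DG-75 cells, read out with a cell viability assay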
Description: SANGER: Inhibition of human DG-75 cell growth in a cell viability assay.

[2] = system: DMS-153; experiment: cells; type: functional, cell-based; details: Homo sapiens
Description: SANGER: Inhibition of human DMS-153 cell growth in a cell viability assay.

[3] = system: EB-3; experiment: cells; type: functional, cell-based; details: Homo sapiens;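 further: human EB-3 cells, growth inhibition read out via a cell viability assay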
Description: SANGER: Inhibition of human EB-3 cell growth in a cell viability assay.

[4] = system: EVSA-T; experiment: cells; type: functional, cell-based, Homo sapiens; details: Homo sapiens, EVSA-T;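 further: growth inhibition of EVSA-T cells, read out with a cell viability assay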
Description: SANGER: Inhibition of human EVSA-T cell growth in a cell viability assay.

[5] = system: G-361; experiment: cells; type: functional, cell-based, Homo sapiens; details: Homo sapiens, G-361
[6] = system: GDM-1; experiment: cells; type: functional, cell-based; details: Homo sapiens;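 further: cell viability readout used to measure growth inhibition of human GDM-1 cells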
Description: SANGER: Inhibition of human GDM-1 cell growth in a cell viability assay.

[7] = system: HT55; experiment: cells; type: functional, cell-based, Homo sapiens; details: Homo sapiens, HT55;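 further: cell viability readout measuring growth inhibition of human HT55 cells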
Description: SANGER: Inhibition of human HT55 cell growth in a cell viability assay.

[8] = system: IM-9; experiment: SANGER: Inhibition of human IM-9 cell growth in a cell viability assay.; type: functional, cell-based
[9] = system: K052; experiment: cells; type: functional, cell-based; details: Homo sapiens;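 further: Read-out from a cell viability assay, IC50 reflecting suppression of K052 cell growth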
Description: SANGER: Inhibition of human K052 cell growth in a cell viability assay.

[10] = system: KMS-12-PE; experiment: cells; type: functional, cell-based; details: Homo sapiens;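 further: growth inhibition of human KMS-12-PE cells, measured with a cell viability assay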
Description: SANGER: Inhibition of human KMS-12-PE cell growth in a cell viability assay.

[11] = system: LB647-SCLC; experiment: cells; type: functional, cell-based; details: Homo sapiens;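 further: cell growth inhibition, read out by a viability assay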
Description: SANGER: Inhibition of human LB647-SCLC cell growth in a cell viability assay.

[12] = system: LOUCY; experiment: cells; type: functional, cell-based; details: Homo sapiens;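 further: growth inhibition of human LOUCY cells, read out with a cell viability assay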
Description: SANGER: Inhibition of human LOUCY cell growth in a cell viability assay.

[13] = system: LU-165; experiment: cells; type: functional, cell-based; details: Homo sapiens
Description: SANGER: Inhibition of human LU-165 cell growth in a cell viability assay.

[14] = system: MEL-JUSO; experiment: cells; type: functional, cell-based, Homo sapiens; details: Homo sapiens, MEL-JUSO;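 further: growth inhibition of human MEL-JUSO cells, read out with a cell viability assay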
Description: SANGER: Inhibition of human MEL-JUSO cell growth in a cell viability assay.

[15] = system: MHH-CALL-2; experiment: cells; type: functional, cell-based; details: Homo sapiens;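 further: growth inhibition of the cell line, read out in a cell viability assay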
Description: SANGER: Inhibition of human MHH-CALL-2 cell growth in a cell viability assay.

[16] = system: MONO-MAC-6; experiment: cells; type: functional, cell-based; details: Homo sapiens;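 further: cell viability assay measuring growth inhibition of human MONO-MAC-6 cells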
Description: SANGER: Inhibition of human MONO-MAC-6 cell growth in a cell viability assay.

[17] = system: NB1; experiment: cells; type: functional, cell-based; details: Homo sapiens;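 further: reduction of NB1 cell proliferation, read out with a viability assay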
Description: SANGER: Inhibition of human NB1 cell growth in a cell viability assay.

[18] = system: NCI-H1417; experiment: cells; type: functional, cell-based; details: Homo sapiens;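 further: human NCI-H1417 cells, growth inhibition determined with a cell viability readout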
Description: SANGER: Inhibition of human NCI-H1417 cell growth in a cell viability assay.

[19] = system: NCI-H1436; experiment: cells; type: functional, cell-based; details: Homo sapiens;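 further: growth suppression of human NCI-H1436 cells, determined with a cell viability readout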
Description: SANGER: Inhibition of human NCI-H1436 cell growth in a cell viability assay.

[20] = system: NCI-H1522; experiment: cells; type: functional, cell-based; details: Homo sapiens;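 further: growth inhibition of NCI-H1522 cells, read out with a cell viability assay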
Description: SANGER: Inhibition of human NCI-H1522 cell growth in a cell viability assay.

[21] = system: NCI-H1694; experiment: cells; type: functional, cell-based; details: Homo sapiens;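 further: cell viability assay measuring inhibition of growth in human NCI-H1694 cells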
Description: SANGER: Inhibition of human NCI-H1694 cell growth in a cell viability assay.

[22] = system: NCI-H1703; experiment: cells; type: functional, cell-based, Homo sapiens; details: Homo sapiens, NCI-H1703;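 further: growth inhibition of NCI-H1703 cells, read out via a cell viability assay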
Description: SANGER: Inhibition of human NCI-H1703 cell growth in a cell viability assay.

[23] = system: NCI-H2009; experiment: cells; type: functional, cell-based, Homo sapiens; details: Homo sapiens, NCI-H2009;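 further: cell viability assay measuring inhibition of NCI-H2009 cell growth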
Description: SANGER: Inhibition of human NCI-H2009 cell growth in a cell viability assay.

[24] = system: NCI-H2081; experiment: cells; type: functional, cell-based; details: Homo sapiens;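 further: growth inhibition of human NCI-H2081 cells, read out with a cell viability assay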
Description: SANGER: Inhibition of human NCI-H2081 cell growth in a cell viability assay.

[25] = system: NCI-H2141; experiment: cells; type: functional, cell-based; details: Homo sapiens;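 further: growth inhibition of human NCI-H2141 cells, read out with a cell viability assay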
Description: SANGER: Inhibition of human NCI-H2141 cell growth in a cell viability assay.

[26] = system: NCI-H2171; experiment: cells; type: functional, cell-based; details: Homo sapiens;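 further: growth inhibition of human NCI-H2171 cells, read out by a cell viability assay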
Description: SANGER: Inhibition of human NCI-H2171 cell growth in a cell viability assay.

[27] = system: NCI-H345; experiment: cells; type: functional, cell-based; details: Homo sapiens;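 further: growth inhibition of NCI-H345 cells measured with a cell viability assay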
Description: SANGER: Inhibition of human NCI-H345 cell growth in a cell viability assay.

[28] = system: NCI-H460; experiment: cells; type: functional, cell-based, Homo sapiens; details: Homo sapiens, NCI-H460;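 further: cell viability assay scoring growth inhibition of human NCI-H460 cells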
Description: SANGER: Inhibition of human NCI-H460 cell growth in a cell viability assay.

[29] = system: NCI-H64; experiment: cells; type: functional, cell-based; details: Homo sapiens;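 further: growth inhibition of NCI-H64 cells, read out with a cell viability assay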
Description: SANGER: Inhibition of human NCI-H64 cell growth in a cell viability assay.

[30] = system: NCI-H748; experiment: cells; type: functional, cell-based; details: Homo sapiens;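 further: growth inhibition of NCI-H748 cells, measured by a cell viability assay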
Description: SANGER: Inhibition of human NCI-H748 cell growth in a cell viability assay.

[31] = system: NCI-H889; experiment: cells; type: functional, cell-based; details: Homo sapiens;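 further: cell growth inhibition of the cell line, read out with a viability assay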
Description: SANGER: Inhibition of human NCI-H889 cell growth in a cell viability assay.

[32] = system: REH; experiment: cells; type: functional, cell-based; details: Homo sapiens;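 further: growth inhibition of REH cells determined with a cell viability read-out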
Description: SANGER: Inhibition of human REH cell growth in a cell viability assay.

[33] = system: RPMI 8402; experiment: SANGER: Inhibition of human RPMI-8402 cell growth in a cell viability assay.; type: functional, cell-based
[34] = system: SCC-3; experiment: cells; type: functional, cell-based; details: Homo sapiens;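 further: cell viability assay measuring inhibition of SCC-3 cell growth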
Description: SANGER: Inhibition of human SCC-3 cell growth in a cell viability assay.

[35] = system: SCLC-21H; experiment: cells; type: functional, cell-based; details: Homo sapiens;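 further: growth inhibition of cultured human SCLC-21H cells, read out with a cell viability assay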
Description: SANGER: Inhibition of human SCLC-21H cell growth in a cell viability assay.

[36] = system: SIMA; experiment: cells; type: functional, cell-based, Homo sapiens; details: Homo sapiens, SIMA;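 further: growth inhibition of SIMA cells, measured with a cell viability readout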
Description: SANGER: Inhibition of human SIMA cell growth in a cell viability assay.

[37] = system: SJRH30; experiment: cells; type: functional, cell-based; details: Homo sapiens;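 further: growth inhibition of human SJRH30 cells, read out with a cell viability assay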
Description: SANGER: Inhibition of human SJRH30 cell growth in a cell viability assay.

[38] = system: SK-MM-2; experiment: cells; type: functional, cell-based; details: Homo sapiens;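 further: growth inhibition of human SK-MM-2 cells, read out with a cell viability assay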
Description: SANGER: Inhibition of human SK-MM-2 cell growth in a cell viability assay.

[39] = system: ST486; experiment: SANGER: Inhibition of human ST486 cell growth in a cell viability assay.; type: functional, cell-based
[40] = system: SUP-T1; experiment: cells; type: functional, cell-based; details: Homo sapiens;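 further: growth inhibition of human SUP-T1 cells, read out as cell viability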
Description: SANGER: Inhibition of human SUP-T1 cell growth in a cell viability assay.

[41] = system: ARH-77; experiment: cells; type: functional, cell-based; details: Homo sapiens;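 further: growth inhibition of ARH-77 cells, read out by a cell viability assay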
Description: SANGER: Inhibition of human ARH-77 cell growth in a cell viability assay.

[42] = system: BC-3; experiment: cells; type: functional, cell-based; details: Homo sapiens;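 further: cell viability assay measuring growth inhibition of human BC-3 cells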
Description: SANGER: Inhibition of human BC-3 cell growth in a cell viability assay.

[43] = system: BL-41; experiment: cells; type: functional, cell-based; details: Homo sapiens;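 further: growth inhibition of human BL-41 cells, read out with a cell viability assay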
Description: SANGER: Inhibition of human BL-41 cell growth in a cell viability assay.

[44] = system: CA46; experiment: cells; type: functional, cell-based; details: Homo sapiens;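 further: growth inhibition of human CA46 cells, read out by a cell viability assay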
Description: SANGER: Inhibition of human CA46 cell growth in a cell viability assay.

[45] = system: CAL-148; experiment: cells; type: functional, cell-based; details: Homo sapiens
Description: SANGER: Inhibition of human CAL-148 cell growth in a cell viability assay.

[46] = system: TE-15; experiment: cells; type: functional, cell-based; details: Homo sapiens;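 further: cell viability readout of growth inhibition in TE-15 cells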
Description: SANGER: Inhibition of human TE-15 cell growth in a cell viability assay.

[47] = system: TE-441-T; experiment: cells; type: functional, cell-based; details: Homo sapiens
Description: SANGER: Inhibition of human TE-441-T cell growth in a cell viability assay.

[48] = system: THP-1; experiment: cells; type: functional, cell-based; details: Homo sapiens;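 further: growth inhibition of THP-1 cells, read out via a cell viability assay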
Description: SANGER: Inhibition of human THP-1 cell growth in a cell viability assay.

[49] = system: CHP-126; experiment: cells; type: functional, cell-based; details: Homo sapiens
Description: SANGER: Inhibition of human CHP-126 cell growth in a cell viability assay.

C=CCc1cccc(/C=N/NC(=O)CN2CCN(Cc3ccccc3)CC2)c1O [PAC-1]
IC50 [1]: > 2560 nM | IC50 [2]: > 2560 nM | IC50 [3]: > 2560 nM | IC50 [4]: > 2560 nM | IC50 [5]: 1190 nM | IC50 [6]: > 2560 nM | IC50 [7]: > 2560 nM | IC50 [8]: > 2560 nM | IC50 [9]: > 2560 nM | IC50 [10]: > 2560 nM | IC50 [11]: > 2560 nM | IC50 [12]: 823 nM | IC50 [13]: > 2560 nM | IC50 [14]: > 2560 nM | IC50 [15]: > 2560 nM | IC50 [16]: > 2560 nM | IC50 [17]: > 2560 nM | IC50 [18]: > 2560 nM | IC50 [19]: > 2560 nM | IC50 [20]: > 2560 nM | IC50 [21]: > 2560 nM | IC50 [22]: > 2560 nM | IC50 [23]: > 2560 nM | IC50 [24]: > 2560 nM | IC50 [25]: > 2560 nM | IC50 [26]: > 2560 nM | IC50 [27]: > 2560 nM | IC50 [28]: > 2560 nM | IC50 [29]: > 2560 nM | IC50 [30]: > 2560 nM | IC50 [31]: > 2560 nM | IC50 [32]: 944 nM | IC50 [33]: 1770 nM | IC50 [34]: > 2560 nM | IC50 [35]: > 2560 nM | IC50 [36]: > 2560 nM | IC50 [37]: > 2560 nM | IC50 [38]: > 2560 nM | IC50 [39]: 967 nM | IC50 [40]: 1000 nM | IC50 [41]: > 2560 nM | IC50 [42]: > 2560 nM | IC50 [43]: 1450 nM | IC50 [44]: 2020 nM | IC50 [45]: > 2560 nM | IC50 [46]: > 2560 nM | IC50 [47]: > 2560 nM | IC50 [48]: > 2560 nM | IC50 [49]: 918 nM
